Reference: ChEMBL document CHEMBL4808234, “Substituent effects of cyclic naphthalene diimide on G-quadruplex binding and the inhibition of cancer cell growth” (Bioorg Med Chem Lett, 2021)
The source made the active and inactive calls. No cut-off for these calls is given here.

How the values were obtained:
Quadruplex DNA [1] = test: Binding affinity to TA-core G4 DNA 5'-TAGGGTTAGGGTTAGGGTTAGGG-3' (unknown origin) assessed as association constant at equilibrium measured under molecular crowding conditions by isothermal titration calorimetry; assay type: nucleic-acid assay; details: Homo sapiens
Quadruplex DNA [2] = test: Binding affinity to c-myc G4 DNA 5'-TGAGGGTGGGGAGGGTGGGGAA-3' (unknown origin) assessed as change in entropy measured under molecular crowding conditions by isothermal titration calorimetry; assay type: nucleic-acid assay; details: Homo sapiens
Quadruplex DNA [3] = test: Binding affinity at TA-core G4 DNA 5'-TAGGGTTAGGGTTAGGGTTAGGG-3' (unknown origin) assessed as circular dichroism changes up to 4.5 uM by spectrophotometric method; assay type: nucleic-acid assay; details: Homo sapiens; dose microM <=4.5
Quadruplex DNA [4] = test: Binding affinity to TA-core G4 DNA 5'-TAGGGTTAGGGTTAGGGTTAGGG-3' (unknown origin) assessed as change in enthalpy measured under dilution conditions by isothermal titration calorimetry; assay type: nucleic-acid assay; details: Homo sapiens
Quadruplex DNA [5] = test: Binding affinity to c-myc G4 DNA 5'-TGAGGGTGGGGAGGGTGGGGAA-3' (unknown origin) assessed as change in entropy measured under dilution conditions by isothermal titration calorimetry; assay type: nucleic-acid assay; details: Homo sapiens
Ca9-22 [6] = test: Growth inhibition of human Ca9-22 cells incubated for 24 hrs by CCK8 assay; assay type: functional, cell-based
Quadruplex DNA [7] = test: Binding affinity to c-myc G4 DNA 5'-TGAGGGTGGGGAGGGTGGGGAA-3' (unknown origin) assessed as association constant at equilibrium measured under molecular crowding conditions by isothermal titration calorimetry; assay type: nucleic-acid assay; details: Homo sapiens
Quadruplex DNA [8] = test: Binding affinity to TA-core G4 DNA 5'-TAGGGTTAGGGTTAGGGTTAGGG-3' (unknown origin) assessed as change in enthalpy measured under molecular crowding conditions by isothermal titration calorimetry; assay type: nucleic-acid assay; details: Homo sapiens
Quadruplex DNA [9] = test: Binding affinity to TA-core G4 DNA 5'-TAGGGTTAGGGTTAGGGTTAGGG-3' (unknown origin) assessed as change in entropy measured under molecular crowding conditions by isothermal titration calorimetry; assay type: nucleic-acid assay; details: Homo sapiens
Quadruplex DNA [10] = test: Binding affinity to TA-core G4 DNA 5'-TAGGGTTAGGGTTAGGGTTAGGG-3' (unknown origin) assessed as association constant at equilibrium measured under dilution conditions by isothermal titration calorimetry; assay type: nucleic-acid assay; details: Homo sapiens
Quadruplex DNA [11] = test: Binding affinity to c-myc G4 DNA 5'-TGAGGGTGGGGAGGGTGGGGAA-3' (unknown origin) assessed as Gibbs free energy change measured under dilution conditions by isothermal titration calorimetry; assay type: nucleic-acid assay; details: Homo sapiens
Quadruplex DNA [12] = test: Binding affinity to c-myc G4 DNA 5'-TGAGGGTGGGGAGGGTGGGGAA-3' (unknown origin) assessed as association constant at equilibrium measured under dilution conditions by isothermal titration calorimetry; assay type: nucleic-acid assay; details: Homo sapiens
[13] = target: Telomerase reverse transcriptase (Homo sapiens) (UniProt O14746); test: Inhibition of telomerase in human A549 cell lysate using TA-core (5'-TAGGGTTAGGGTTAGGGTTAGGG-3') and Rev21G (5'-TCT CGT CTF CCC TAA-3') as primer by PCR stop assay; assay type: subcellular
Quadruplex DNA [14] = test: Binding affinity to TA-core G4 DNA 5'-TAGGGTTAGGGTTAGGGTTAGGG-3' (unknown origin) assessed as Gibbs free energy change measured under dilution conditions by isothermal titration calorimetry; assay type: nucleic-acid assay; details: Homo sapiens
Quadruplex DNA [15] = test: Binding affinity to TA-core G4 DNA 5'-TAGGGTTAGGGTTAGGGTTAGGG-3' (unknown origin) assessed as change in entropy measured under dilution conditions by isothermal titration calorimetry; assay type: nucleic-acid assay; details: Homo sapiens
Quadruplex DNA [16] = test: Binding affinity to c-myc G4 DNA 5'-TGAGGGTGGGGAGGGTGGGGAA-3' (unknown origin) assessed as change in enthalpy measured under molecular crowding conditions by isothermal titration calorimetry; assay type: nucleic-acid assay; details: Homo sapiens
Quadruplex DNA [17] = test: Binding affinity to c-myc G4 DNA 5'-TGAGGGTGGGGAGGGTGGGGAA-3' (unknown origin) assessed as change in enthalpy measured under dilution conditions by isothermal titration calorimetry; assay type: nucleic-acid assay; details: Homo sapiens
Quadruplex DNA [18] = test: Binding affinity at TA-core G4 DNA 5'-TAGGGTTAGGGTTAGGGTTAGGG-3' (unknown origin) assessed as change in melting temperature by circular dichroism spectrophotometric method; assay type: nucleic-acid assay; details: Homo sapiens
Quadruplex DNA [19] = test: Binding affinity at c-myc G4 DNA 5'-TGAGGGTGGGGAGGGTGGGGAA-3' (unknown origin) assessed as circular dichroism changes up to 4.5 uM by spectrophotometric method; assay type: nucleic-acid assay; details: Homo sapiens; dose microM <=4.5
Quadruplex DNA [20] = test: Binding affinity to c-myc G4 DNA 5'-TGAGGGTGGGGAGGGTGGGGAA-3' (unknown origin) assessed as Gibbs free energy change measured under molecular crowding conditions by isothermal titration calorimetry; assay type: nucleic-acid assay; details: Homo sapiens
Quadruplex DNA [21] = test: Binding affinity to TA-core G4 DNA 5'-TAGGGTTAGGGTTAGGGTTAGGG-3' (unknown origin) assessed as Gibbs free energy change measured under molecular crowding conditions by isothermal titration calorimetry; assay type: nucleic-acid assay; details: Homo sapiens
Ca9-22 [22] = test: Growth inhibition of human Ca9-22 cells at 0.1 uM incubated for 24 hrs by CCK8 assay; assay type: functional; details: read-out: GI
[23] = Growth inhibition of human NHEK cells at 0.1 uM incubated for 24 hrs by CCK8 assay; assay type: tissue-based; details: read-out: GI
Bone marrow cell [24] = test: Growth inhibition of human Bone marrow cell incubated for 24 hrs by CCK8 assay; assay type: cell-based
Bone marrow cell [25] = test: Growth inhibition of human Bone marrow at 0.1 uM cell incubated for 24 hrs by CCK8 assay; assay type: cell-based
[26] = Growth inhibition of human NHEK cells incubated for 24 hrs by CCK8 assay; assay type: tissue-based

Chain of Telomerase reverse transcriptase (Homo sapiens) (O14746 whole entry): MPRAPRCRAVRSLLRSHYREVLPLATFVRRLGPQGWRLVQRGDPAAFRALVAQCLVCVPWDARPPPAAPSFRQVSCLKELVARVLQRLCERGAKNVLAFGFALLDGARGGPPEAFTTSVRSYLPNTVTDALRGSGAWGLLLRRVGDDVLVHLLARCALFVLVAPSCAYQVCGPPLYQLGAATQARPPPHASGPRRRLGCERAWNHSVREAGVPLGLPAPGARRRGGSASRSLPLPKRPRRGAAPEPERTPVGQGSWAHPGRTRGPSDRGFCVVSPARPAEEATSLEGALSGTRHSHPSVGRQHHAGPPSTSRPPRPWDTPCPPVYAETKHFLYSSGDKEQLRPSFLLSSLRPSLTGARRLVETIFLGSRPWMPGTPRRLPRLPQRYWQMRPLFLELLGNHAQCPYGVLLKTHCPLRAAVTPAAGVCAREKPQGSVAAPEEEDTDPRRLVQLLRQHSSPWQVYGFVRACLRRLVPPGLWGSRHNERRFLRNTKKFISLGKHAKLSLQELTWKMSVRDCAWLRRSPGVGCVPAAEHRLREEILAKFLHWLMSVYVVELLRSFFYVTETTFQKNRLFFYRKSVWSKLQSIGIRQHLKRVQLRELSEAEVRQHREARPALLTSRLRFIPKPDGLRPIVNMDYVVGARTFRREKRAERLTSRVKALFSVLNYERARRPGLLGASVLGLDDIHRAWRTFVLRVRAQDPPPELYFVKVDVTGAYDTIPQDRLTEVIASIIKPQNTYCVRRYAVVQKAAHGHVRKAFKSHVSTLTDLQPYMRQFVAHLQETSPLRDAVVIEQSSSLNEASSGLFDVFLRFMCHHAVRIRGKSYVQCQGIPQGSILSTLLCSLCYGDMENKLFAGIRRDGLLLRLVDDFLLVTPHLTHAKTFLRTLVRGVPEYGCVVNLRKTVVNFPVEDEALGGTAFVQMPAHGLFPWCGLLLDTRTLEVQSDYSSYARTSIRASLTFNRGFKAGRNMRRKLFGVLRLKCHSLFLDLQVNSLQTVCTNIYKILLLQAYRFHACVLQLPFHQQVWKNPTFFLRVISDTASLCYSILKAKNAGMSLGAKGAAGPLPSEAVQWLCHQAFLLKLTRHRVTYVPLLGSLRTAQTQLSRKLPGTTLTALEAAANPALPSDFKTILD

SMILES	Ka (Quadruplex DNA [1]) [M⁻¹]	-TdeltaS (Quadruplex DNA [2]) [kcal/mol]	Activity (Quadruplex DNA [3])	deltaH (Quadruplex DNA [4]) [kcal/mol]	-TdeltaS (Quadruplex DNA [5]) [kcal/mol]	Activity (Ca9-22 [6])	Ka (Quadruplex DNA [7]) [M⁻¹]	deltaH (Quadruplex DNA [8]) [kcal/mol]	-TdeltaS (Quadruplex DNA [9]) [kcal/mol]	Ka (Quadruplex DNA [10]) [M⁻¹]	deltaG (Quadruplex DNA [11]) [kcal/mol]	Ka (Quadruplex DNA [12]) [M⁻¹]	inhibition [13]	deltaG (Quadruplex DNA [14]) [kcal/mol]	-TdeltaS (Quadruplex DNA [15]) [kcal/mol]	deltaH (Quadruplex DNA [16]) [kcal/mol]	deltaH (Quadruplex DNA [17]) [kcal/mol]	ΔTm (Quadruplex DNA [18]) [°C]	Activity (Quadruplex DNA [19])	deltaG (Quadruplex DNA [20]) [kcal/mol]	also measured
CN1CCCNC(=O)c2cccc(c2)C(=O)NCCCN(C)CCCN2C(=O)c3ccc4c5c(ccc(c35)C2=O)C(=O)N(CCC1)C4=O	700000	45	Active	-9	1.3	Active	800000	-35	27	2.2e+06	-8.7	2.4e+06	Active	-8.6	0.36	-53	-10	10	Active	-8	deltaG (Quadruplex DNA [21]): -8 kcal/mol
CN1CCCNC(=O)CCCC(=O)NCCCN(C)CCCN2C(=O)c3ccc4c5c(ccc(c35)C2=O)C(=O)N(CCC1)C4=O	1.9e+06	12	Active	-8.5	2.9	Active	1.6e+06	-22	14	3.4e+06	-8.1	1.1e+06	Active	-8.9	-0.4	-20	-11	10	Active	-8.5	deltaG (Quadruplex DNA [21]): -8.6 kcal/mol
CN1CCCNC(=O)CC(C)(C)CC(=O)NCCCN(C)CCCN2C(=O)c3ccc4c5c(ccc(c35)C2=O)C(=O)N(CCC1)C4=O	700000	41	Active	-11	2.3	Active	400000	-29	21	1.7e+06	-8.7	2.6e+06	Active	-8.5	2.5	-48	-11	10	Active	-7.6	deltaG (Quadruplex DNA [21]): -8 kcal/mol
CN1CCCNC(=O)CC2(CCCCC2)CC(=O)NCCCN(C)CCCN2C(=O)c3ccc4c5c(ccc(c35)C2=O)C(=O)N(CCC1)C4=O	600000	12	Active	-13	4.7	Active	700000	-43	35	1.5e+06	-9.3	6.2e+06	Active	-8.6	4.4	-20	-14	10	Active	-8	inhibition of growth at 0.1 µM (Ca9-22 [22]): > 70%; inhibition at 24 h, 0.1 µM [23]: 40%; Activity (Bone marrow cell [24]): Non-Toxic; Activity (Bone marrow cell [25]): Non-Toxic; deltaG (Quadruplex DNA [21]): -7.9 kcal/mol; Activity [26]: Non-Toxic
